Data published in patent publication US11013702B2, “Midodrine hydrochloride oral solution and uses thereof” (Vertice Pharma, LLC, priority 2017, dated 2021).

Experiment: Solubility of midodrine hydrochloride in various solvents and pH values
Format: physicochemical

Measured: solubility

COc1ccc(OC)c(C(O)CNC(=O)CN)c1.Cl (stereo not drawn) [Midodrine Hydrochloride, 2-amino-N-[2-(2,5-dimethoxyphenyl) -2-hydroxyethyl]acetamide hydrochloride]
> 10 mg/mL: 0.01N hydrochloric acid, simulated gastric fluid | 0.1N hydrochloric acid, simulated gastric fluid | Simulated Gastric Fluid (SGF) pH 1.25 | aqueous buffer, Potassium Phosphate Buffer, pH 6.0 | potassium phosphate buffer, pH 2.5, aqueous buffer | potassium phosphate buffer, pH 3.5, aqueous buffer | potassium phosphate buffer, pH 4.5, aqueous buffer | potassium phosphate buffer, pH 5.5, aqueous buffer | potassium phosphate buffer, pH 6.8, aqueous buffer | potassium phosphate buffer, pH 7.2, aqueous buffer | potassium phosphate buffer, pH 7.5, aqueous buffer | water
